Assay results reported in patent US11344553B2, “Substituted pyrazolopyrimidines useful as kinases inhibitors” (TELIGENE LTD, priority 2017, dated 2022).
In brackets after ≈: the same amount, converted by molar mass. Read-outs that look alike come from different tables or passages of the source.

Assays:
[1] = Pharmacokinetic study, IV and oral, bioavailability; type: in vivo; conditions: plasma, oral; rat; 2 mg/kg IV, 5 mg/kg orally; read-out: F (%) oral bioavailability
Description: (d) Pharmacokinetic Study of a Representative Number of Compounds A representative protocol for the PK (pharmacokinetic) assay was as followed: Compounds were given either IV or orally to the same animals. […] Analysis: LC-MS/MS was used to calculate PK parameters: t1/2, tmax, Cmax, Vss and AUC, etc. The following TABLE D lists selected compounds and their bioavailability.

[2] = Brain penetration (brain to plasma ratio); type: in vivo
TEL-NTRK1-BaF3 cell = TEL-NTRK1-BaF3 cell assay (CellTiter-Glo viability, 72 hours); type: cell-based
Protocol: (b) A Representative Number of Compounds were Assayed Against TEL-NTRK1-BaF3 Cell.
I. Prepare Compound Plate
Compounds to be assayed were dissolved in 100% DMSO to prepare a […] mother solution, which underwent 3× series dilution to prepare solutions with concentrations of 10 mM, 3.333 mM, 1.111 mM, 0.370 mM, 0.123 mM, 0.041 mM, 0.014 mM, all of which stored in 0.5 mL sterile eppendorf (Corning, N.Y., USA). At the same time prepare a blank sample as control containing DMSO only with the same volume as the compound solutions. The 9 samples on the Compound plate were store at −20° C. in vacuum.
II. Cell Culture Conditions
TEL-NTRK1-BaF3 cell line was cultured in RPMI 1640 (Corning, N.Y., USA)+10% fetal calf serum (Gibco/Invitrogen, USA) for two generations after resuscitation. Stored for future use.
III. Assay and Data Analysis
Cells (2,000-2,500 cells per well) at log phase were harvested and inoculated in wells of a white, opaque cell culture plate (Corning 3570, NY, USA). The volume of suspensions comprising cells in each well was 100 μL. Compounds from the Compound plate were added 0.1 μL per well to the cell culture plate to reach a final compound concentrations of 10 μM, 3.3 μM, 1.1 μM, 0.37 μM, 0.12 μM, 0.04 μM, and 0.014 μM. Incubated at 37° C. and 5% CO2 culture chamber for 72 hours. Ten μL CellTiter-Glo® Luminescent Cell Viability Assay Reagent was added to each well, wait for 10 minutes, then read using Evision Plate-Reader.
The following Table B lists compounds representative of the disclosure and their activity in TEL-NTRK1-BaF3 Cell assay.

[3] = Solubility measurement in pH 4.0 buffer (HPLC); type: physicochemical; conditions: pH 4.0 buffer solution (20 mM), aqueous buffer, thermodynamic from solid; pH 4.0 buffer (20 mM), 25° C.
Protocol: (c) Solubility Measurement of a Representative Number of Compounds
Solubility measurement procedure may include:
Preparation of reference standard solution: 2 mg of the testing compound was added individually to 100 mL volumetric flask each. The compound was diluted with acetonitrile to 100 mL.
Preparation of sample solution: 2 mg of the testing compound was added individually to 2 mL eppendorf tube (EP), followed by the addition of 1 mL of pH 4.0 buffer solution (20 mM). The solution was shaken for 2 minutes and left for 30 minutes at 25° C. After standing for 30 minutes, precipitate was formed at the bottom of the EP. The solution was filtered through a 0.2 μm membrane filter, and then diluted by 50 times with water.
The standard and sample solutions were injected into the HPLC on a Shim-Pack CLC-ODS C18 column (150 mm×6.0 mm, Sum) with the same volume. The mobile phase consists of acetonitrile with 2% trichloromethane—20 mM KH2PO4 buffer (pH=7.0) at a flow rate of 1 mL/minutes (40:60). The detection wavelength was at 264 nm. Calculation: solubility of sample=the concentration of standard×Area of sample×50/Area of standard.
The following Table C lists solubility data for selected compounds.

[4] = One-month toxicity study in rat; type: in vivo; conditions: 30 mg/kg and 100 mg/kg, end of administration and recovery periods
Protocol: A representative number of compounds, including Compound 1 (LOXO-101) and Compound 3, were tested in a typical one-month toxicity studies in rat with dosages of 30 mg/kg and 100 mg/kg.

TRK-A = TRK-A (Homo sapiens (Human), UniProt P04629); assay: In vitro kinase activity inhibition assay (Caliper), TRK-A; type: biochemical
TRK-A, sequence (P04629 33-796, species assumed): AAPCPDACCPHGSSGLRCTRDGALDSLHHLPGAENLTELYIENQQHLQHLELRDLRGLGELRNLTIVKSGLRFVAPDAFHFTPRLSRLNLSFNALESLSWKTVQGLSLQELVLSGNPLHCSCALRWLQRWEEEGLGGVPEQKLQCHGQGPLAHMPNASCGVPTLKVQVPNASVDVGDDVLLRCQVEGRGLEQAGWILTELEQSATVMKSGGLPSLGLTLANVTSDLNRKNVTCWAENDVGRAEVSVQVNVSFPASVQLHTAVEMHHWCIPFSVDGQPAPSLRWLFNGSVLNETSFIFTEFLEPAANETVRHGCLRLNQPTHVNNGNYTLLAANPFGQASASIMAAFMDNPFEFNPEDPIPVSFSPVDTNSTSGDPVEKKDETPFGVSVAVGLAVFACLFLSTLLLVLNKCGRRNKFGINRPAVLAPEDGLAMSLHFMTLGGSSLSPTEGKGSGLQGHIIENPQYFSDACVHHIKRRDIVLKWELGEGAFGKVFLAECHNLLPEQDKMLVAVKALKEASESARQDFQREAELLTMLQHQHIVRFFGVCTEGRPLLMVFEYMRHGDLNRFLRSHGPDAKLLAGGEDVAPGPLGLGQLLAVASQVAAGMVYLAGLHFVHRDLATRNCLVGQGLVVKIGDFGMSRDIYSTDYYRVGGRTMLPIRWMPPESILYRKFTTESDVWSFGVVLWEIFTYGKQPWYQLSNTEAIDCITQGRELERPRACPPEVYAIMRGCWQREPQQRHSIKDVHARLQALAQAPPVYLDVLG
Protocol: (§1) (a) An In Vitro Assay which Determines the Ability of a Test Compound to Inhibit Kinase Activity
(§2) I. Prepare 1× Kinase Base Buffer and Stop Buffer for Testing Kinases
1) 1× Kinase base buffer (for TRK-A)
(§3) II. Prepare Source Plate with Compound
(§4) 1) Dilute the compound to 50× of the final concentration in reaction by 100% DMSO. Transfer 100 μl of this compound dilution to a well in a 96-well plate. For example, if the desired highest inhibitor concentration is 10 μM, then prepare a 500 μM of compound DMSO solution in this step.
(§5) 2) Perform 3× series dilution of the compound dilution obtained in step 1) with 100% DMSO to provide 9 more diluted solutions of the compound.
(§6) 3) Add 100 μl of 100% DMSO to two empty wells for no compound control and no enzyme control in the same 96-well plate. Mark the plate as source plate.
(§7) 4) Prepare intermediate plate
(§8) Transfer 10 μl of compound from the source plate to a new 96-well plate as the intermediate plate.
(§9) Add 90 μl of 1× Kinase base buffer to each well of the intermediate plate.
(§10) Mix the compounds in intermediate plate for […] on a shaker.
Transfer 5 μl of each well from the 96-well intermediate plate to a 384-well plate in duplicates. For example, A1 of the 96-well plate is transferred to A1 and A2 of the 384-well plate. A2 of the 96-well plate is transferred to A3 and A4 of the 384-well plate, and so on. […]

ROS1 = ROS1 (Homo sapiens (Human), UniProt P08922); assay: In vitro kinase activity inhibition assay (Caliper), ROS1; type: biochemical; conditions: read-out: ROS-1 IC50
ROS1, sequence (P08922 28-2347, species assumed): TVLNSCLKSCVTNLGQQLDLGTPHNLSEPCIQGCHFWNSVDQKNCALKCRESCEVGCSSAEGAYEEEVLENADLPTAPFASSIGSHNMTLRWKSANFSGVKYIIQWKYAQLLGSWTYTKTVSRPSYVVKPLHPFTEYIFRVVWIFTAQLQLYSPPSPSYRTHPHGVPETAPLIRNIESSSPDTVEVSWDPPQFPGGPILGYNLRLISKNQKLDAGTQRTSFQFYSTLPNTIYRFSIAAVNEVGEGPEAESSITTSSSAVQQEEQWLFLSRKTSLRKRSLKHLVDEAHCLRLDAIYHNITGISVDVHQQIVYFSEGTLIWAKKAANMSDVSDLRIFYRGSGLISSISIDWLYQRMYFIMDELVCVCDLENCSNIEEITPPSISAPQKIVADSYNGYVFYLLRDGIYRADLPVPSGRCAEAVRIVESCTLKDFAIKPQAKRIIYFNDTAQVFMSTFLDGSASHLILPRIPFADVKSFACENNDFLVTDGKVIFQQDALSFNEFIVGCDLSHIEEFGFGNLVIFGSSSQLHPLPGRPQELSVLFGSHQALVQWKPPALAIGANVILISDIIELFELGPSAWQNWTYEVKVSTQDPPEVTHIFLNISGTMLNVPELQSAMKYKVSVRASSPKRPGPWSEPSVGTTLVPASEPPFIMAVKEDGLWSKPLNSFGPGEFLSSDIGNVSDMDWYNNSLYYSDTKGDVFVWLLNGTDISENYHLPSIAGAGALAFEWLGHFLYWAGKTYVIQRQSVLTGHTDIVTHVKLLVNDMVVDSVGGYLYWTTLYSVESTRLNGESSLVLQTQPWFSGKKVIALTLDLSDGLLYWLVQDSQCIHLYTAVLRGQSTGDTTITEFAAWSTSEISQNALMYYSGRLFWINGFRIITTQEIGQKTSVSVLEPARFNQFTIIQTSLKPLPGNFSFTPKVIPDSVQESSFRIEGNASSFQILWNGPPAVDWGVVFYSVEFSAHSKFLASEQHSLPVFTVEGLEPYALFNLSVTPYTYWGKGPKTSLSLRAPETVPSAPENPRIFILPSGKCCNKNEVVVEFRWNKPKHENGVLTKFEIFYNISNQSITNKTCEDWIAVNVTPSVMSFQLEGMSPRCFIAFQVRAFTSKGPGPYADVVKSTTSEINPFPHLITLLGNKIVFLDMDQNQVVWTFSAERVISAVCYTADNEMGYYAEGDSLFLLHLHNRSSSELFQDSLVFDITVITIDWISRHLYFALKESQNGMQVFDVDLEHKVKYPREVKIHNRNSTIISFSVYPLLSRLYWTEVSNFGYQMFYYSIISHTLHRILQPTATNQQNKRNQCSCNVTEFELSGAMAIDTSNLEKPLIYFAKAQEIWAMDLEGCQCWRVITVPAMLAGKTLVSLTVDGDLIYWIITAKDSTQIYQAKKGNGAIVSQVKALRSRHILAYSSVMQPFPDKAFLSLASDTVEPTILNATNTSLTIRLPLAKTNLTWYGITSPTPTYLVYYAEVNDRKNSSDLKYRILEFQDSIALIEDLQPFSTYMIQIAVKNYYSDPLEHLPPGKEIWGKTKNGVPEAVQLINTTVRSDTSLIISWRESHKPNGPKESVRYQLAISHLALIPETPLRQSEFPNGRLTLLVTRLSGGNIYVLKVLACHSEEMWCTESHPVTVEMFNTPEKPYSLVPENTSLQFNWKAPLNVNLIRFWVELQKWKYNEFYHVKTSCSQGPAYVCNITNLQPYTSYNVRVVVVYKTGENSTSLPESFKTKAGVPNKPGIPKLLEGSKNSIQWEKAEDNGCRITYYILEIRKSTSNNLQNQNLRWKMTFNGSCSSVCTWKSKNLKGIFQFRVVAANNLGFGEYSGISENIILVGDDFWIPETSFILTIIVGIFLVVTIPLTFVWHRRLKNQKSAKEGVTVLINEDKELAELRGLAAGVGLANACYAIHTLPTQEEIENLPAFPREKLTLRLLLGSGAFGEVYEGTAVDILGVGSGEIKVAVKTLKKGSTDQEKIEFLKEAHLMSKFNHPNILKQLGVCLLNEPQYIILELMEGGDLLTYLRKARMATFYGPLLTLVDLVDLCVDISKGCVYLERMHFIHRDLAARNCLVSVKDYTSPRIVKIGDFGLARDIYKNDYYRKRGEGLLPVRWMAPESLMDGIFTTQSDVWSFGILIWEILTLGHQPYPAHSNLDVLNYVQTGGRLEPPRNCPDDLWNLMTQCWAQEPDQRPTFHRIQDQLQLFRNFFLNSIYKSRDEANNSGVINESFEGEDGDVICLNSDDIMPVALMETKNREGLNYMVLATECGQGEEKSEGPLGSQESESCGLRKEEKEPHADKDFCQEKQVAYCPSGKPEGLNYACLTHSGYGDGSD
Protocol: as §1, §2, §3, §4, §5, §6, §7, §8, §9, §10
Transfer 5 μl of each well from the 96-well intermediate plate to a 384-well plate in duplicates. For example, A1 of the 96-well plate is transferred to A1 and A2 of the 384-well plate. A2 of the 96-well plate is transferred to A3 and A4 of the 384-well plate, and so on.
1) Prepare 2.5× enzyme solution Add kinase in 1× kinase base buffer. […]

Row | bioavailability [1] [%] | brain penetration ([2]; in vivo) | GI50 (TEL-NTRK1-BaF3 cell; 72 h) [nM] | solubility [3] [µg/mL] | IC50 (TRK-A) [nM] | GI50 (TEL-NTRK1-BaF3 cell) [nM] | Kp ([2]; brain) | IC50 (ROS1) [nM] | SMILES | #LYMPH and/or % LYMPH in blood [4] | #NEUT and/or % NEUT in blood [4]
1 | 33 | low brain penetration | 25 | 310 (≈ 724 µM) |  |  |  |  | O=C(Nc1cnn2ccc(N3CCC[C@@H]3c3cc(F)ccc3F)nc12)N1CC[C@H](O)C1 [Compound 1, reference compound] | slight decrease | slight increase trend
2 |  |  |  |  | 1.8 | < 1 |  |  | CN1CCN(Cc2ccc(C(=O)Nc3cnn4ccc(N5CCC[C@@H]5c5cc(F)ccc5F)nc34)cc2)CC1 [Compound 2] |  | 
3 | 56 |  |  | 36100 (≈ 67900 µM) | 3 | 3 | 5.47 | 104 | CN1CCN(Cc2ccc(C(=O)Nc3cnn4ccc(N5CCC[C@@H]5c5cc(F)ccc5F)nc34)cc2)CC1 [Compound 3] |  | 
4 |  |  | 24 | 310 (≈ 589 µM) |  |  |  |  | CCS(=O)(=O)Nc1ccc(C(=O)Nc2cnn3ccc(N4CCC[C@@H]4c4cc(F)ccc4F)nc23)cc1 [Compound 4] |  | 
